Source: patent publication US11795381B2, “Using synthetic acid compositions as alternatives to conventional acids in the oil and gas industry” (priority 2016, dated 2023)
Counter-ions that a name gives are not always drawn.

Experiments:
[1] = in the presence of iron (III)
[2] = Stability of urea on exposure to higher temperature; type: physicochemical; conditions: 180° C. for 8 h
Procedure: In order to assess the stability of synthetic acids containing urea, the stability of urea was tested by only considering its exposure to higher temperature. Urea 50% diluted with 50% seawater @ 180° C. for 8 h. […] This confirms that synthetic acids containing urea have decreasing stability when heated above 90° C. and are less desirable to use than compositions according to the present invention which have stability when exposed to temperatures above 200° C.

Compound	pH of full precipitation [1]	observation after exposure to high temperature [2]	pH after exposure to high temperature [2]	pH before exposure to high temperature [2]
Cl [HCl, hydrochloric acid]	approximately 2.5			
Urea [Urea 50% diluted with 50% seawater]		strong ammonia smell	9.44	7.61
